Columns and labels:
Male Sprague Dawley rats = assay: Forced Swim Test (FST); type: in vivo, rat
From the text: The Forced Swim Test (FST) is a classic, and the most used preclinical behavioral assay to screen compounds with antidepressant-like activity and has high predictive and face validity (Porsolt et al. (1977) Nature 266:730; Borsini and Meli (1988) Psychopharmacology 94:147). The premise of the FST is that when rats are placed into a cylinder filled with water, they will initially try to escape, but over time will become immobile. This increased immobility reflects behavioral despair, modeling a depressive-like state.
Forced Swim Test (FST): In the FST trial, rats were placed in a circular plexiglass container filled with water, with no means of escape. Water temperature was maintained at 22-25° C. and changed for every animal. After an acclimation period, rats were timed for inactivity (failure to struggle), activity, swim time and climbing time. Day 1 consisted of a 15 min acclimation trial, and Day 2 (24 h later) consisted of the 5 min test. A time sampling procedure was employed where animals were observed every 5 sec and scored for immobility, swimming, or climbing. Fluoxetine (10 mg/kg, IP, Sigma Aldrich) or 0.9% sterile saline vehicle (vehicle 3× group) were administered 23.5, 5, and 1 h before testing in the FST. […] The experimenter was blinded to treatment.
Forced Swim Test: In the FST trial, rats were placed in a circular plexiglass container filled with water, with no means of escape. Water temperature was maintained at 22-25° C. and changed for every animal. After an acclimation period, rats were timed for inactivity (failure to struggle), activity, swim time and climbing time. Day 1 consisted of a 15 min acclimation trial, and Day 2 (24 h later) consisted of the 5 min test. A time sampling procedure was employed where animals were observed every 5 sec and scored for immobility, swimming, or climbing. Fluoxetine (10 mg/kg, IP, Sigma Aldrich) or 0.9% sterile saline vehicle (vehicle 3× group) were administered 23.5, 5, and 1 h before testing in the FST. 2C-B (2.5, 10, or 20 mg/kg, IP, Cayman Chemical) or 0.9% saline vehicle (vehicle 1× group) were administered 30 min prior to FST testing. The experimenter was blinded to treatment.
Drug Treatment: Fluoxetine (10 mg/kg, IP, Sigma Aldrich) or 0.9% sterile saline vehicle were administered 23.5, 5, and 1 h before testing in the FST. […] Control animals received fluoxetine alone, methylone alone, or saline vehicle.
Forced Swim Test: In the FST trial, rats were placed in a circular plexiglass container filled with water, with no means of escape. Water temperature was maintained at 22-25° C. and changed for every animal. After an acclimation period, rats were timed for inactivity (failure to struggle), activity, swim time and climbing time. The experimenter and scorer were blind to treatment group. Day 1 consisted of a 15 min acclimation trial, and Day 2 (24 h later) consisted of the 5 min test. A time sampling procedure was employed where animals were observed every 5 sec and scored for immobility, swimming, or climbing.
Control animals received saline vehicle. The dosing schedule and experimental design are found in FIG. 12A.
The FST was performed and scored by an experimenter blind to treatment group according to standard protocols and based on a “modified FST” procedure (Slattery and Cryan (2012) Nat Protoc, 7:1009). Briefly, rats were placed in a circular plexiglass container (29.2 cm diameter, 49.5 cm height) filled with water to a depth of 30 cm so rats could not support themselves by touching the bottom of the tank. Water was maintained at 22-25° C. and was changed for every animal. Day 1 (Training) consisted of a 15 min acclimation trial, and Day 2 (Testing, 24 h later) consisted of the 5 min test. […]

5HT2A receptor = target: T1, 5HT2A receptor (Homo sapiens, UniProt P28223); assay: GPCRmax screen, agonist mode; type: cell-based
T1 construct: beta-galactosidase enzyme fragment (PathHunter complementation tag); host or cells: PathHunter cell lines

[1] = tested on: gene expression in amygdala, frontal cortex, hippocampus; assay: RNA-sequencing of brain areas after a single dose; type: in vivo, rat; conditions: 10 mg/kg IP each
5HT2C receptor = target: T2, 5HT2C receptor (Homo sapiens, UniProt P28335); assay: GPCRmax screen, agonist mode; type: cell-based
T2 construct: beta-galactosidase enzyme fragment (PathHunter complementation tag); host or cells: PathHunter cell lines
T2 sequence (P28335 33-458): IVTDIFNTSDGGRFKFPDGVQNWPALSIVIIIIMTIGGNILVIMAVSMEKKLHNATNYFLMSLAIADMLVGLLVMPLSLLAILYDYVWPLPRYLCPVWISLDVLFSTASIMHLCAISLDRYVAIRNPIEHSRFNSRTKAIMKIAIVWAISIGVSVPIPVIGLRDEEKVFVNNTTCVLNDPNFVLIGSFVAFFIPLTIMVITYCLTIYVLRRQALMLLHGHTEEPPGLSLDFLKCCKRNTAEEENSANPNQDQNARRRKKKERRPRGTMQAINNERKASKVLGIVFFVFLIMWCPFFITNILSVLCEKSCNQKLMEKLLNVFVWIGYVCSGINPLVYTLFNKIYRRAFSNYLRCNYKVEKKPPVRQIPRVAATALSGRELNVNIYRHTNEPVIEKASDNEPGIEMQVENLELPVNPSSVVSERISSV

T1 sequence (P28223 whole entry, the tested form may be a part): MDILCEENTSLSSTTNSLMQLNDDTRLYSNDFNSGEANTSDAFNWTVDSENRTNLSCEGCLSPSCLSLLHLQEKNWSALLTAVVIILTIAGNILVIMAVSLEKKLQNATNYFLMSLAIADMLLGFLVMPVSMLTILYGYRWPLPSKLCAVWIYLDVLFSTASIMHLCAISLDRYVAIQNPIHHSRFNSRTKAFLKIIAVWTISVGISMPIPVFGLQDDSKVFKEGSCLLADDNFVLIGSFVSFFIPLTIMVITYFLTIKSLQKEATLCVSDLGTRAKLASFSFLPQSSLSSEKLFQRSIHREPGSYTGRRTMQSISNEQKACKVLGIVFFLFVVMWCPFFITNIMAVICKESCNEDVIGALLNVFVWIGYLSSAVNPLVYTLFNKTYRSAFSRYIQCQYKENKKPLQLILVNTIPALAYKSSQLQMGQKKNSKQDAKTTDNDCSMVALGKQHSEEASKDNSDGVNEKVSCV

## CNC(C)C(=O)c1ccc2c(c1)OCO2 (centres unmarked) [methylone, 3,4-methylenedioxy-N-methylcathinone]
Male Sprague Dawley rats; Example 8
  climbing behavior (FST): significantly increased climbing behavior
Male Sprague Dawley rats; doses of 10 mg/kg or more
  effectiveness in the FST: maximally effective
Male Sprague Dawley rats; four […] IP doses 20.5, 8.5, 4.5 and 0.5 hours before testing
  antidepressant-like effect (FST), multiple lower doses: significant antidepressant-like effects
Male Sprague Dawley rats; methylone IP dose range, 30 min before testing
  climbing (FST): only increased at the lowest dose
Male Sprague Dawley rats; mid and high doses of methylone IP, 30 min before testing
  swimming (FST): significantly increased swimming
Male Sprague Dawley rats; single dose 15 mg/kg PO, 2 hours before testing
  antidepressant-like effect (FST) vs. vehicle: significant antidepressant-like effect
Male Sprague Dawley rats; single dose 5, 10, 15, 20 and 30 mg/kg IP, 30 min before testing
  immobility (FST) vs. saline vehicle: significantly reduced immobility
5HT2A receptor; 1 or 10 mM, threshold 30%
  agonist % activity: no agonist or antagonist activity
5HT2A receptor; HTR2A, Agonist mode, 10 uM
  activity at 10 µM: 1.4%
5HT2A receptor; HTR2A, Agonist, 1 uM
  activity at 1 µM: -0.1%
[1]
  genes regulated by methylone that are also regulated by MDMA, amygdala: 87%
5HT2C receptor; 1 or 10 mM, threshold 30%
  agonist % activity: no agonist or antagonist activity
5HT2C receptor; HTR2C, Agonist mode, 10 uM
  activity at 10 µM: 3.7%
5HT2C receptor; HTR2C, Agonist, 1 uM
  activity at 1 µM: 1.4%
